Like-named read-outs stand apart in the source and are kept apart here.
Columns and labels:
WJ-MSC = test: ATP-based luminescence cell viability assay (ViaLight), 72 h; design: species or system human; details: WJ-MSC (mesenchymal cells), 72 h treatment, read-out: EC50 Values of Olive Oil Polyphenols
Protocol: The antiproliferative/cytotoxic effects of the selected OOPs on each cell line were assessed by measuring the cellular ATP levels after 72 h treatments using an ATP-based luminescence assay [73]. […] The EC50 values were calculated by nonlinear regression (curve fit) using a sigmoidal dose–response equation (Figure 2A and Figure S2).
Briefly, after the treatment with OOPs, the adapted medium was removed from the dish wells and the cells were washed twice with medium without FBS. Then, the C-lysis (LT27-076) was diluted in PBS (1:2) and a volume of 50 μL was added to each well. Cells were incubated with C-lysis for at least 10 min. […] Cell viability was quantified by measuring luminescence using a multi-mode microplate reader Safire^2 Tecan (software Magellan V6.00 STD.2PC WIN.20000/XP).

[1] = tested on: sixteen human cancer cell lines originating from eight different tissues; test: ATP-based luminescence cell viability assay, whole panel; details: for Bioactivity range on cancer cell lines (grade in words): Figure 3, sixteen cancer cell lines; for EC50: 72 h treatment
Protocol: The antiproliferative/cytotoxic effects of the selected OOPs on each cell line were assessed by measuring the cellular ATP levels after 72 h treatments using an ATP-based luminescence assay. This assay, initially developed as a tumor chemosensitivity assay, has shown considerable promise as a general in vitro toxicity assay due to its high sensitivity that allows the detection of a small number of cells. Consequently, it can be applied to both cancer cell lines and primary tissue cells. […] The EC50 values were calculated by nonlinear regression (curve fit) using a sigmoidal dose–response equation (Figure 2A and Figure S2).
The OOPs tested in this study were first dissolved in an appropriate DMSO volume such as to prepare a final stock solution of 50 mM, which was further used to prepare various compound concentrations in DMSO-based solutions. The final DMSO concentration in the cell culture was maintained constant in all treated groups of any given experiment and never exceeded the value of 0.2% (v/v). For the treatment experiments, cells were plated in 96-well culture plates, in 100 μL of complete medium at a seeding density of 5000–10,000 cells/well—depending on cells’ size and doubling time—and were allowed to adhere overnight (~16 h). The next day, 150 μL of complete medium was added to each well and the cells were treated with various concentrations of OOPs. Each concentration was tested in triplicate and was repeated 2–3 times. To prepare the final concentration solutions, 0.5 μL of a 500× stock of each tested compound in DMSO was added directly into each well in a final volume of 250 μL culture medium and was gently mixed by pipetting. Control wells were prepared under the same experimental conditions by adding only DMSO at a final concentration of 0.2% (v/v). Compounds were not renewed during the entire period of cell exposure. All cells were cultured at 37 °C in a 5% (v/v) CO2 for 24, 48 or 72 h.
Briefly, after the treatment with OOPs, the adapted medium was removed from the dish wells and the cells were washed twice with medium without FBS. Then, the C-lysis (LT27-076) was diluted in PBS (1:2) and a volume of 50 μL was added to each well. Cells were incubated with C-lysis for at least 10 min. Finally, an equal volume of lysed cells from each well and ATP monitoring reagent (AMR; LT27-212) was transferred to the wells of a white-walled illuminometer plate (Greiner bio-one; 655074). Cell viability was quantified by measuring luminescence using a multi-mode microplate reader Safire^2 Tecan (software Magellan V6.00 STD.2PC WIN.20000/XP).

SK-BR-3 = test: Annexin V-FITC/PI staining, flow cytometry; format: cell-based, human; details: 48 h at EC50
Text: (§1) To discern whether cell death triggered by OOPs treatment occurred via apoptosis or necrosis under the experimental conditions applied in this study, live cells treated with OOPs were stained simultaneously with FITC-conjugated annexin V and propidium iodide (PI). Annexin V binds to phosphatidylserine (PS) translocating from the inner to the outer leaflet of the plasma membrane in apoptotic cells. Therefore, annexin V-FITC binding to PS labels live apoptotic cells with green FL. […] PS exposure to the extracellular space and cell membrane permeability were analyzed by flow cytometry as described in detail in the Experimental Section. […] OOP concentrations used were equal to the EC50 values for each cell line (Table 1). annexin V and PI staining discriminated between early- (i.e., annexin V +ve and PI −ve) and late-apoptotic cells (i.e., annexin V +ve and PI +ve), as well as between necrotic (i.e., annexin V −ve and PI +ve) and live (i.e., annexin V −ve and PI −ve) cells (Table 4).
(§2) Apoptosis and necrosis were assessed by double staining with annexin V-FITC and propidium iodide (PI) and were analyzed using flow cytometry (FACS). Human cancer cells were plated in 96-well culture plates in 100 μL of complete medium and were allowed to adhere overnight (~16 h). […] In detail, 0.5 μL of a 500× stock of each tested compound in DMSO was added directly into each well in a final volume of 250 μL culture medium and was gently mixed by pipetting. Control wells were prepared under the same experimental conditions by adding only DMSO at a final concentration of 0.2% (v/v). At the end of the treatment, the cells were detached by trypsinization, media with serum was added to deactivate trypsin, and the cells from three wells were pooled together by centrifugation (1000 rpm, 5 min, 24 °C), washed with cold PBS, centrifuged (1000 rpm, 5 min, 24 °C) and finally resuspended in cold 1× annexin V binding buffer (10 mM HEPES pH = 7.4, 150 mM NaCl, 2.5 mM CaCl2) at a density of 10^4 cells/mL. Staining was performed by incubating with annexin V- FITC and propidium iodide (PI; BioLegend) for 15 min at room temperature in the dark, according to the manufacturer’s instructions. Negative control samples consisted of cells treated only with 0.2% (v/v) DMSO for the same incubation time length (i.e., 48 h). Cells treated with Triton X-100 (0.25% (v/v)) for 5 min at 4 °C were used as controls for 100% permeabilization of the plasma membrane and maximum fluorescence staining with PI (positive control for cells in necrosis). The presence of live, apoptotic or necrotic cells was assessed with the FACS Calibur (Becton–Dickinson, San Jose, CA, USA). In total, 10,000 cells were analyzed per measurement and the acquired data were analyzed using the FlowJo V.10.0.8 software (Tree Star Inc., Ashland, OR, USA). Each condition was analyzed in duplicate, and the results presented are from 2 or 3 independent experiments.
(§3) Data showing OOPs’ apoptotic/necrotic effect were derived from two or three independent experiments and were presented as the means ± SE of the percentage (%) of both annexin V-positive cells (early apoptotic events) and % of annexin V/PI positive cells (late apoptotic events) over the whole cell population normalized to the corresponding events of the control cells, as determined using the FlowJo software.

PANC-1 = test: Annexin V-FITC/PI staining, flow cytometry; format: cell-based, human; details: 48 h at EC50
Text: as §1, §2, §3

H1299 = test: Annexin V-FITC/PI staining, flow cytometry; format: cell-based, human; details: 48 h at EC50
Text: as §1, §2, §3

AGS = test: Annexin V-FITC/PI staining, flow cytometry; format: cell-based, human; details: 48 h at EC50
Text: as §1, §2, §3

[2] = Homo sapiens, range across cancer cell lines, read-out: EC50, range over the cancer cell lines

| EC50 [1, 2] [µM] | Compound | EC50 (WJ-MSC; Homo sapiens) [µM] | Bioactivity range on cancer cell lines (grade in words) [1] | % Cell Viability (SK-BR-3) [%] | Early Apoptotic (% ± S.D.) (SK-BR-3) [%] | Late Apoptotic (% ± S.D.) (SK-BR-3) | Total Apoptotic (%) (SK-BR-3) | % Cell Viability (PANC-1) [%] | Early Apoptotic (% ± S.D.) (PANC-1) [%] | Late Apoptotic (% ± S.D.) (PANC-1) | Total Apoptotic (%) (PANC-1) | % Cell Viability (H1299) [%] | Early Apoptotic (% ± S.D.) (H1299) [%] | Late Apoptotic (% ± S.D.) (H1299) [%] | Total Apoptotic (%) (H1299) | % Cell Viability (AGS) [%] | Early Apoptotic (% ± S.D.) (AGS) [%] | Late Apoptotic (% ± S.D.) (AGS) [%] | Total Apoptotic (%) (AGS) | further results |
| --- | --- | --- | --- | --- | --- | --- | --- | --- | --- | --- | --- | --- | --- | --- | --- | --- | --- | --- | --- | --- |
| 11.9 to 50.1 | COC(=O)C1=COC(C)[C@@H](C=O)[C@@H]1CC(=O)OCCc1ccc(O)c(O)c1 (mixture of isomers) [3a,b, oleuropein aglycone] | 28.7 ± 0.3 | Very strong activity on 7/16 cancer cell lines | 59 | 7.63 ± 1.9 | No L.A. | 7.63 ± 1.9 | 40 | 8.52 ± 2.3 | 3.01 ± 2.0% | 11.52 ± 4.3 | 40 | 9.14 ± 3.1 | 5.44 ± 2.2 | 14.58 ± 5.3 | 31 | 19.40 ± 0.6 | 8.08 ± 2.0 | 27.48 ± 1.4 | – |
| 9.1 to 44.6 | C/C=C(/C=O)[C@@H](CC=O)CC(=O)OCCc1ccc(O)cc1 [compound 1, oleocanthal] | – | Very strong activity on 10/16 cancer cell lines | 59 | 7.45 ± 4.4 | 1.26 ± 0.7% | 8.71 ± 5.1 | 60 | 4.47 ± 0.8 | No L.A. | 4.47 ± 0.8 | 57 | 4.77 ± 0.9 | 7.27 ± 0.2 | – | 33 | 18.42 ± 4.4 | 4.94 ± 3.1 | 23.36 ± 1.4 | EC50 ([1]; Homo sapiens, most cancer cell lines, read-out: EC50 in most cancer cell lines): 9 to 20 µM |
| > 25 | C/C=C(/C=O)[C@@H](CC=O)CC(=O)OCCc1ccc(O)c(O)c1 [compound 2, oleacein] | 28.2 ± 11.1 | Good/moderate activity on 9/16 cancer cell lines | 60 | 5.78 ± 0.9 | No L.A. | 5.78 ± 0.9 | 58 | 4.39 ± 1.8 | No L.A. | 4.39 ± 1.8 | 40 | 5.96 ± 1.6 | 3.07 ± 1.8 | 9.03 ± 0.2 | 41 | 10.00 ± 1.3 | 4.55 ± 1.8 | 14.55 ± 3.1 | – |
| – | ligstroside aglycone [4a,b] | – | Very strong activity on lung cancer cell lines | 87 | 1.30 ± 0.3 | No L.A. | 1.30 ± 0.3 | 34 | 12.37 ± 2.7 | 4.42 ± 0.4% | 16.78 ± 3.1 | – | – | – | – | 36 | 16.03 ± 0.8 | 7.77 ± 1.8 | 23.79 ± 2.6 | EC50 (WJ-MSC): 39.3 ± 3.8 µM; EC50 ([1]; range across cancer cell lines, read-out: EC50, range over the cancer cell lines): 11.6 to 98.2 µM |
